Laboratory results: patent US11491100B2, “Dermal composition comprising chelator and base” (Primal Therapies, Inc., priority 2013, dated 2022)

test: Ranking of candidate chelator and base agents by potency score; parameters: key: 1 = most desired, 3 = least desired; conditions: not given
Text: Methods of selecting base and chelator compositions depend on use. Compositions may be determined by ranking base, chelator and enhancer agents, from most desired to least desired, for multiple parameters such as safety, solubility, compatibility, pH, potency, taste, consistency, smell and others.
Non-toxic chelator and base compositions may be ranked according to the desired parameters of potency and approved-for-oral-consumption. A desired parameter such as potency for a candidate chelator or base may be given a score of “1” for most desired and a score of “3” for least desired. In one embodiment, candidate chelators, bases and enhancers may be ranked by FDA approval for oral consumption. Agents with a score of “1” may have approval for the desired indication and a score of “3” may not have approval or may not be approved for the desired indication. The resultant overall score may be tabulated and may be used to facilitate selection.
Microbes were cultured in growth media and plated at 10^3 CFU/well in a 96 well microtiter plate and cultured for 24 h. Wells were then treated with 10-50 μL of media only as control or with media+chelator agents, base agents, acid agents, neutral agents or enhancer agents for 30 min at RT followed by repleation in […] of fresh RPMI pH 7.2. Plates were then incubated for an additional 48-72 h prior to harvest. Wells were washed 3× in PBS and residual biofilm was stained using crystal violet. Wells were washed 4× in PBS and the amount of retained stain was measured. […] Synergistic effects were evaluated and numerous compounds were examined for their ability to synergistically act with chelators to inhibit biofilm formation (examples of some test compounds analyzed for synergy with chelators are presented in Table 2).
Screens of base components to use in compositions comprising chelator were performed. Briefly, the pH of S. mutans cultures were measured 24 and 48 hr post administration of chelator and candidate base components. Combinations of chelator, base and enhancer agents were also evaluated for affecting metabolic activity and/or metabolism of S. mutans (FIG. 3).

In the case of `NCCCC[C@H](N)C(=O)O` [Lysine], the “POTENCY (score 1-3)” value is reported as 2.

same assay, conditions: base agents that may be used in combination with chelators

Compared with `OC[C@H]1O[C@H](O[C@H]2[C@H](O)[C@@H](O)[C@H](O)O[C@@H]2CO)[C@H](O)[C@@H](O)[C@@H]1O` [D-maltose], `O=P([O-])([O-])O.[Ca+2]` [Dibasic calcium phosphate] is higher in “POTENCY (score 1-3)” value: 1 for the first, 3 for the second.

`NC(N)=Nc1nc(CSCCC(N)=NS(N)(=O)=O)cs1` [Famotidine, reference compound] and `Cc1ncc(COP(=O)(O)O)c(C=O)c1O` [Pyridoxal-5-phosphate] are the same in “POTENCY (score 1-3)” value: 1 for the first, 1 for the second.

`Cc1ncc(CO)c(CN)c1O` [Pyridoxamine] and `Cc1ncc(CO)c(CO)c1O` [Pyridoxine] are the same in “POTENCY (score 1-3)” value: 1 for the first, 1 for the second.

First: CNC(=C[N+](=O)[O-])NCCSCc1ccc(CN(C)C)o1 [Remitidine, reference compound]
Second: OCN(CO)CO [Tris (hydroxymethyl) amine]
The “POTENCY (score 1-3)” value of the first is lower: 1 for the first, 2 for the second.

First: NC(CO)(CO)CO [Tris amine]
Second: O=c1cc[nH]c(=O)[nH]1 [Uracil]
The “POTENCY (score 1-3)” value of the first is lower: 2 for the first, 3 for the second.

Going from Lysozyme to Vitamin B12, the “POTENCY (score 1-3)” value rises from 1 to 2.

First: Vitamin K
Second: protamine sulfate
The “POTENCY (score 1-3)” value of the first is lower: 1 for the first, 2 for the second.

same assay, conditions: chelators that may be used in combination with base agents

Going from `COc1cc(/C=C/C(=O)CC(=O)/C=C/c2ccc(O)c(OC)c2)ccc1O` [Curcumin] to `O=S(=O)(O)CC(S)CS` (centres unmarked) [DMPS], the “POTENCY (score 1-3)” value falls from 2 to 1.

`O=C(O)[C@@H](S)[C@@H](S)C(=O)O` [DMSA] and `CC(=O)N(O)CCCCCNC(=O)CCC(=O)N(O)CCCCCNC(=O)CCC(=O)N(O)CCCCCN` [Deferasiroxamine B] are the same in “POTENCY (score 1-3)” value: 1 for the first, 1 for the second.

`O=C(O[C@@H]1Cc2c(O)cc(O)cc2O[C@@H]1c1cc(O)c(O)c(O)c1)c1cc(O)c(O)c(O)c1` [EGCG] and `O=C(O)CN(CCOCCOCCN(CC(=O)O)CC(=O)O)CC(=O)O` [EGTA] are the same in “POTENCY (score 1-3)” value: 1 for the first, 1 for the second.

First: O=P(O)(O)O[C@H]1[C@H](OP(=O)(O)O)[C@@H](OP(=O)(O)O)[C@H](OP(=O)(O)O)[C@@H](OP(=O)(O)O)[C@H]1OP(=O)(O)O [Inositol hexaphosphate]
Second: O=c1c(O)c(-c2ccc(O)c(O)c2)oc2cc(O)cc(O)c12 [Quercetin]
The “POTENCY (score 1-3)” value of the first is higher: 2 for the first, 1 for the second.

Going from `Oc1ccc(C=Cc2cc(O)cc(O)c2)cc1` [Resveratrol] to `CC(=O)N(O)CCC[C@@H]1NC(=O)[C@H](CCCN(O)C(C)=O)NC1=O` [Rhodotorulic acid], the “POTENCY (score 1-3)” value falls from 2 to 1.

`O=C(OC[C@H]1O[C@@H](OC(=O)c2cc(O)c(O)c(OC(=O)c3cc(O)c(O)c(O)c3)c2)[C@H](OC(=O)c2cc(O)c(O)c(OC(=O)c3cc(O)c(O)c(O)c3)c2)[C@@H](OC(=O)c2cc(O)c(O)c(OC(=O)c3cc(O)c(O)c(O)c3)c2)[C@@H]1OC(=O)c1cc(O)c(O)c(OC(=O)c2cc(O)c(O)c(O)c2)c1)c1cc(O)c(O)c(OC(=O)c2cc(O)c(O)c(O)c2)c1` [Tannic acid] and Anachelins are the same in “POTENCY (score 1-3)” value: 1 for the first, 1 for the second.

Chlorophylls and Cyclodextrins are the same in “POTENCY (score 1-3)” value: 1 for the first, 1 for the second.

Deferoxamines and Ferrioxamines are the same in “POTENCY (score 1-3)” value: 1 for the first, 1 for the second.

With Vitamin B12 the “POTENCY (score 1-3)” value was 1.
